Data taken from patent publication US9399635B2, “Pyrazole derivative” (GREEN TECH CO., LTD., priority 2011, dated 2016).

Experiments:
Aβ 1-42 = target: T1, Aβ 1-42 (Homo sapiens, UniProt P05067); test: Determination of Aβ aggregation inhibitory activity (thioflavin T fluorescence); assay type: biochemical; conditions: Aβ 1-42, 37° C. for 24 hours, thioflavin T; read-out: IC50 (μM) Test example 3 (Aβ aggregation inhibitory activity)
T1 construct: Aβ 1-42 (Peptide Institute, Inc.) was dissolved in 0.3% ammonia water; purchased Peptide Institute, Inc
Experimental: Pharmacological test example 3: Determination of Aβ aggregation inhibitory activity
Aβ 1-42 (Peptide Institute, Inc.) was dissolved in 0.3% ammonia water so that the concentration would be 0.5 mM and then diluted with PBS to 20 μM. The test compounds were prepared using DMSO at 100-fold of their final concentrations and adjusted so that the DMSO concentration would be 2%. The Aβ solution and each of the test compound solutions were mixed at an equivalent ratio and the mixtures were incubated at 37° C. for 24 hours. To each of the mixtures, an equal volume of a thioflavin T solution adjusted with a 100 mM Tris-glycine buffer (pH 8.5) to 6 μM was added. The fluorescence intensity was measured with a fluorescence plate reader (excitation wavelength: 440 nm; emission wavelength: 480 nm).
The final concentration of each compound at the time of measurement was set at 0.1, 0.3, 1, 3, and 10 μM. The sample to which only DMSO was added was used as a negative control and its fluorescence intensity was taken as 0% inhibitory activity.

[1] = tested on: Aβ 1-42 in the brain of APPswe/PS1dE9 Tg mice; test: Aβ aggregation inhibitory activity and Aβ production inhibitory activity in mice with oral administration (brain Aβ 1-42 ELISA); assay type: in vivo; conditions: oral 25 or 50 mg/kg bw/day, four weeks (FIG. 3)
Experimental: Pharmacological test example 5: Determination of Aβ aggregation inhibitory activity and Aβ production inhibitory activity in mice with oral administration
To APPswe/PS1dE9 Tg mice (male, 10 to 12 months old, n=8 to 10), the compound of Example 2 was orally administered and the concentration of Aβ in the brain was measured. The administration vehicle was an 80% PEG 400 aqueous solution. The dose volume was 10 mL/kg bw/day and the dose was adjusted to be 25 mg/kg bw/day or 50 mg/kg bw/day. To Vehicle group, 10 mL/kg bw/day of an 80% PEG 400 aqueous solution was administered. Administration was performed with an oral feeding tube (Fuchigami Kikai Company) by gavage and continued for four weeks. After termination of the administration, the mice were sacrificed under pentobarbital anesthesia and the brain was harvested. The brain was homogenized after addition of a 10-fold volume of a phosphoric acid buffer (pH 7.4) and the homogenate was centrifuged at 4° C., 16,000 g for 1 hour. The centrifugal supernatant was used as a soluble protein sample. […] An amount of 100 μL of a reaction stop solution was added to stop the chromogenic reaction and the absorbance was measured at 450 nm with a microplate reader (Bio-Rad). The Aβ concentration was determined from the standard curve produced from the measured values of the standard curve dilution series.

T1 sequence (P05067 672-713): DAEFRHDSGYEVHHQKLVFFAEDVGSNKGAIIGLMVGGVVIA

`COc1cc(OCc2ccccn2)ccc1/C=C/c1cc(/C=C/c2ccc3cc[nH]c3c2)[nH]n1` [Example 2, 3-[(1E)-2-(1H-indol-6-yl)ethenyl]-5-[(1E)-2-[2-methoxy-4-(2-pyridylmethoxy)phenyl]ethenyl]-1H-pyrazole] was tested, and the IC50 (Aβ 1-42) was 1.5 µM, the “amount of insoluble Aβ 1-42 in the brain” value [1] was “decreased in a dose-dependent manner” and the “amount of soluble Aβ 1-42 in the brain” value [1] was “decreased in a dose-dependent manner”.
